The text below walks through data of patent publication US20230303506A1, “COMPOSITIONS AND METHODS FOR THE PREVENTION AND/OR TREATMENT OF MITOCHONDRIAL DISEASE, INCLUDING FRIEDREICH'S ATAXIA” (Stealth BioTherapeutics Inc., priority 2019, published 2023).

Entries after “also recorded” stand apart in the source; their conditions may differ.

In one assay the test system is GM03665 cells. Description: RSL3 Toxicity Assay (RSL3 Assay). Format: cell-based, human. Here is the method:
In brief, GM03665 cells (Coriell Institute) were seeded in 96-well plates (Sarstedt) in DMEM cell culture media containing 10% Fetal Bovine serum and 1% Penicillin-Streptomycin (Pen-Strep) antibiotic mix at the amount of 2×10^4/mL (100 μL or 2×10^3 cells per well). Cells were left to rest overnight at 37° C. in a humidified atmosphere with 5% CO2 to allow attachment of the cells to the culture plate. Test compounds were prepared as DMSO stocks (10 mM) and were serially diluted in cell culture media to obtain 2× working solutions. Cell media was discarded and replaced by 50 μL of test compound solutions or cell media with vehicle for control wells. Within 15 minutes, 2× working solution (4 μM) of 1S,3R-RSL3 (CAS #1219810-16-8, Sigma-Aldrich) (diluted from 5 mM DMSO stock in cell culture media) was added. Final reaction volume was 100 μL and final DMSO concentration in reaction was kept below 0.2% (v/v) and equal in all wells. Final RSL3 concentration was 2 μM and test compound final concentrations in reaction were up to 1000 nM. After 24 hours of incubation cell viability was assessed by MTT test. MTT (Sigma-Aldrich) solution 1 mg/mL in 1×PBS (pH=7,4) was prepared 1 hour before the assay and filtered through Filtropur S 0.2 filters (Sarstedt). Cell media with test compounds was discarded and 100 μL of MTT solution was added to cells. The plates were incubated for 2 hours at +37° C. Thereafter, the MTT solution was removed and 100 μL of isopropanol was added to dissolve sediment. Absorption at 570 and 650 nm was measured using Hidex Sense microplate reader.

The next assay has as its target lipoxygenase-15 enzyme (Glycine max (Soybean) (Glycine hispida), UniProt P08170). Description: Lipoxygenase-15 Assay (LO-15 Assay). Particulars: reduced form of compounds.
Assay [1] relates to frataxin deficient fibroblasts (GM03665). Description: cells. The format is cell-based.
A further assay relates to HepG2 cells. In words: Rotenone Oxygraph Assay (high-resolution respirometry of intact HepG2 cells). The format is cell-based, human. Particulars: Table 7; 1 μM rotenone, compound 10 μM. Here is the method:
The Oxygraph-2 k (O2k, OROBOROS INSTRUMENTS, Austria) was used for measurements of respiration of intact cells. The respirometry was performed in Dulbecco's Modified Eagle Medium (DMEM) high glucose without supplements. All experiments were performed at 37° C.
HepG2 cells (ATCC collection code HB-8065™) were cultured in 10 cm^2 culture dishes in DMEM high glucose medium supplemented with 10% fetal bovine serum (FBS) and 100 units/mL penicillin and 100 μg/mL streptomycin until approximately 90% confluence was reached. Immediately prior to performing the respirometric assay, the cells were washed with media without FBS, trypsinized and resuspended in DMEM high glucose without FBS.
The final concentration of intact cells in the O2k-chamber was 0.5·10^6/mL. After stabilization of respiration, the Complex I inhibitor, rotenone, at 1 μM final concentration was added to inhibit electron flux via Complex I. Then, compound to be tested was added at 10 μM final concentration, and the change in respiration rate of intact cells was monitored.

Another assay concerns Nrf-2. Description: Nrf-2 Activation Assay (Nrf-2 Assay). As to conditions: for activation of Nrf-2 pathway, in words: FIG. 7; for Nrf-2 Assay: Table 7, 1 μM compound, 24 hours, qPCR of Nrf-2 responsive genes. Format: cell-based, human. Here is the method:
This assay was developed internally and was designed to determine if the novel test compounds disclosed herein active Nrf-2 and thereby promote resolution of inflammation by the mechanism believed to be responsible for the activity of omaveloxolone.
Briefly, GM03665 Friedreich Ataxia patient fibroblasts were grown in 12 Well Plates (TC Cell+F) (Sarstedt, Numbrecht Germany), at a density of […] in DMEM/F12 (Gibco, ThermoFisher Scientific, Waltham, MA, USA) cell media supplemented with 10% FBS and 1% Pen/Strep. Cells were left to rest overnight at 37° C. in a humidified atmosphere with 5% CO2 to allow attachment of the cells to the culture plate. Before continuing assay visual inspection of each well was done by light microscopy to detect any possible bacterial and fungal contamination. […] After incubation, cell media was removed and total RNA from the cells was isolated using E.Z.N.A.® Total RNA Kit I (Omega Bio-tek, Norcross, Georgia, USA) spin columns, and first-strand cDNA synthesis was carried out using a High Capacity cDNA Reverse Transcription Kit (Applied Biosystems™, Foster City, CA) following the manufacturer's instructions. qPCR analysis of gene expression was performed by mixing SYBR® Green Master Mix (Applied Biosystems™) with synthesized cDNA and forward and reverse primers. […] (60 cycles), and 95° C. for 60 seconds, followed by melt curve analysis at 72-95° C., 0.3° C./sec. The relative expression levels for each gene were calculated with the ΔΔCt method and normalized to the expression of REEP5 and SNRPD3 genes.

Assay [2] deals with HepG2 human hepatocarcinoma cells. Description: Rotenone ATP Assay (Complex I Assay). As to conditions: for Complex I by-pass activity / restoring ATP production, in words: summary of rotenone assays; for activity in both the BSO Assay and the Rotenone ATP Assay, in words: BSO Assay and Rotenone ATP Assay taken together. The format is cell-based. Here is the method:
This assay has been adapted from Haefeli R H, Erb M, Gemperli A C, Robay D, Courdier Fruh I, et al. (2011) NQO1-Dependent Redox Cycling of Idebenone: Effects on Cellular Redox Potential and Energy Levels. PLoS ONE 6(3): e17963. HepG2 human hepatocarcinoma cells were co-incubated with the electron transport chain Complex I toxin rotenone +/− compounds of interest and the corresponding effect on ATP synthesis was measured with a bioluminescent substrate.
In brief, HepG2 cells were plated at 25,000 cells per well in low glucose (1 gram/Liter) DMEM medium+10% fetal calf serum and incubated for 24 hours. The following day, the media was decanted and subsequently replaced with glucose free/serum free DMEM which has been supplemented with 50 micromolar rotenone and compound of interest. Serial dilutions of compound were prepared in 3× dilutions beginning at 25 micromolar. The cells were incubated for 60 minutes in a humidified tissue culture incubator. Following incubation, ATP levels were quantified via bioluminescent assay (Promega […] Glo Assay kit) and readings were captured on a standard microplate reader.
ATP bioluminescence is plotted versus the log of compound of interest and data were used to generate EC50 values. Curve fitting was performed using a sigmoidal dose response curve fit function (GraphPad Prism software).
Robustness of curve fit was assessed as a quality control measure, with an R squared value of at least 0.80 being required for a successful curve fit. Compounds of interest showing an increase in ATP bioluminescence relative to vehicle control were verified in an independent biological replicate of n=3 technical replicates per dose.
This assay is a direct measure of the ability of compounds of interest to restore ATP production under conditions of inhibition of Complex I of the mitochondrial electron transport chain. As the majority of ATP produced via the electron transport chain is thought to derive from Complex I activity, significant impairment in Complex I function has dire biological consequences. Of note, Complex I mutations are thought to drive pathophysiology in multiple mitochondrial diseases, including Leigh syndrome and Leber's Hereditary Optic Neuropathy (LHON), while diminished Complex I activity and the resultant attenuation of ATP production has been shown in neurodegenerative diseases, including Friedreich's Ataxia, Parkinson's Disease and Huntington's Disease.

Consider `CC1=C(C)C(=O)C(CC[C@](C)(O)CC/C=C(\C)CCC=C(F)F)=C(C)C1=O` [Compound H, (R,E)-2-(11,11-difluoro-3-hydroxy-3,7-dimethylundeca-6,10-dien-1-yl)-3,5,6-trimethylcyclohexa-2,5-diene-1,4-dione], for which the “activity in RSL3 assay (protection from RSL3 induced ferroptosis), in words” value (from here on “activity in RSL3 assay”) in the assay with GM03665 cells is given as “active; also recorded: able to prevent ferroptotic cell death”. The “activity in LO-15 assay, in words” value at lipoxygenase-15 enzyme is recorded as “active; also recorded: effective inhibitors”. Also, the “activity in BSO assay (protection from BSO induced cell death), in words” value (“activity in BSO assay” for short) in assay [1] was “able to prevent ferroptotic cell death; also recorded: active”. Moreover, the “Rotenone Oxygraph Assay % Increase” value in the assay with HepG2 cells is given as 54.3 +/− 13%. Also, in the assay with Nrf-2, the “activation of Nrf-2 pathway, in words” value is “do not activate” and the “Nrf-2 Assay” value was “Inactive”. In addition, in assay [2], the “Complex I by-pass activity / restoring ATP production, in words” value is “active”.
Turning to `CC1=C(C)C(=O)C(CC[C@](C)(O)CCCCCCCCC(F)(F)F)=C(C)C1=O` [Compound N, (R)-2,3,5-trimethyl-6-(12,12,12-trifluoro-3-hydroxy-3-methyldodecyl)cyclo-hexa-2,5-diene-1,4-dione], in the assay with GM03665 cells, the “activity in RSL3 assay” value was “active; also recorded: able to prevent ferroptotic cell death”. The “activity in LO-15 assay, in words” value at lipoxygenase-15 enzyme is recorded as “active; also recorded: effective inhibitors”. Besides, the “activity in BSO assay” value in assay [1] is “able to prevent ferroptotic cell death; also recorded: active”. In addition, the “Rotenone Oxygraph Assay % Increase” value in the assay on HepG2 cells is 44.8 +/− 10.3%. Further, in the assay on Nrf-2, the “activation of Nrf-2 pathway, in words” value was “do not activate” and the “Nrf-2 Assay” value is recorded as “Inactive”. In assay [2], the “activity in both the BSO Assay and the Rotenone ATP Assay, in words” value is given as “possess both activities”; the “Complex I by-pass activity / restoring ATP production, in words” value was “active”.
Turning to `CC1=C(C)C(=O)C(CC[C@](C)(O)CC/C=C(\C)CC/C=C(\C)CCC=C2COC2)=C(C)C1=O` [Compound E, 2-((R,6E,10E)-3-hydroxy-3,7,11-trimethyl-14-(oxetan-3-ylidene)tetradeca-6,10-dien-1-yl)-3,5,6-trimethylcyclohexa-2,5-diene-1,4-dione], in the assay on GM03665 cells, the “activity in RSL3 assay” value is recorded as “active; also recorded: able to prevent ferroptotic cell death”. Moreover, at lipoxygenase-15 enzyme, the “activity in LO-15 assay, in words” value is on record as “outside of the range of the assay”. Besides, the “activity in BSO assay” value in assay [1] is “able to prevent ferroptotic cell death; also recorded: active”. The “Rotenone Oxygraph Assay % Increase” value in the assay on HepG2 cells is listed as 37.9 +/− 10.7%. In the assay on Nrf-2, the “activation of Nrf-2 pathway, in words” value was “do not activate” and the “Nrf-2 Assay” value was “Inactive”. Moreover, in assay [2], the “activity in both the BSO Assay and the Rotenone ATP Assay, in words” value is “possess both activities”; the “Complex I by-pass activity / restoring ATP production, in words” value was “active”.
